# Experimental data from patent US7507540B1, “Catalytic anti-factor VIII allo-antibodies” (Institut National de la Sante et de la Recherche Medicale …, priority 1999, dated 2009).
# Non-standard residues stand in square brackets, D forms with d. Residues, ends and D or L forms follow the SMILES beside them. *: point of attachment. Sta = CC(C)C[C@H](N)[C@@H](O)CC(=O)O; Isovaleryl = CC(C)CC(=O)*
# Test system: proteolytic activity of anti-Factor VIII IgG
# Experiment: Inhibition of anti-Factor VIII IgG-catalysed hydrolysis of [125I]-Factor VIII
# Assay type: biochemical, human
# Settings: for inhibition of proteolytic activity of anti-Factor VIII IgG: IgG of patients Bor and Wal
# Method: Commercial human recombinant Factor VIII was labelled with ^125I to a specific activity of 11.6 nCi/μg, by using the iodogen method. [^125I]-Factor VIII (1.5 to 150 ng) was incubated in 50 μl of 50 mM tris-HCI pH 7.7, 100 mM glycine, 0.025% Tween-20 and 0.02% NaN3 alone or with 17 to 1667 nM of immuno-purified anti-Factor VIII IgG for 5 min to 10 hours at 38° C. Human monoclonal anti-digoxin IgG M061 (mAb) and normal unfractionated human polyclonal IgG (IVIg, Sandoglobulin®), were used as negative controls. Samples were mixed 1:1 with Laemmli's buffer without mercaptoethanol, and were subjected to SDS electrophoresis without boiling,. Samples were run in parallel on 7.5% and 15% SDS-PAGE under non-reducing conditions, after loading 20 μl of each sample per lane. Migration was performed at room temperature using a mini-PROTEAN II system at 25 mA/gel, until the dye front reached the bottom of the gel. […] Following autoradiography, the Factor VIII bands of apparent molecular weight 200 and 300 kDa that are consistently hydrolysed by anti-Factor VIII IgG, were scanned so as to allow for the calculation of the rate of hydrolysis of labelled Factor VIII.
# Hydrolysis of [^125I]-Factor VIII by affinity-purified anti-Factor VIII IgG antibodies of haemophilia A patients with inhibitor in the presence of Pefabloc®. [^125I]-Factor VIII (150 ng) was incubated alone, with 50 μg/ml of immunopurified anti-Factor VIII IgG of patient Wal or in the presence of both anti-Factor VIII IgG and 4 mM of the serine protease inhibitor Pefabloc® (Boehringer) for 5 h at 38° C. Factor VIII was then analysed by 7.5% SDS-PAGE under non-reducing conditions. Following autoradiography, the Factor VIII bands of apparent molecular weight 200 and 300 kDa that are consistently hydrolysed by anti-FVIII IgG, were scanned so as to allow for the calculation of the % of hydrolysis of labelled […].
compound,measurement,setting,value
CC(C)C[C@H](NC(=O)[C@H]1O[C@@H]1C(=O)O)C(=O)NCCCCN=C(N)N [E-64],inhibition of proteolytic activity of anti-Factor VIII IgG,E-64 28 μM,did not result in inhibition of proteolytic activity
O=C(O)CN(CCN(CC(=O)O)CC(=O)O)CC(=O)O [EDTA],inhibition of proteolytic activity of anti-Factor VIII IgG,EDTA 1.3 μM,did not result in inhibition of proteolytic activity
"Cl.NCCc1ccc(S(=O)(=O)F)cc1 [Pefabloc, 4-(2-aminoethyl)benzenesulphonyl fluoride hydrochloride]",inhibition of proteolysis of radio-labelled Factor VIII by anti-Factor VIII allo-antibodies of patient Wal,"4 mM Pefabloc, 50 μg/ml IgG of patient Wal, 5 h at 38° C.",about 62%
CC(=O)N[C@@H](CC(C)C)C(=O)N[C@@H](CC(C)C)C(=O)N[C@H](C=O)CCCNC(=N)N [leupeptin],inhibition of proteolytic activity of anti-Factor VIII IgG,leupeptin 10 μM,did not result in inhibition of proteolytic activity
CC(C)CC(=O)N[C@H](C(=O)N[C@H](C(=O)N[C@@H](CC(C)C)[C@@H](O)CC(=O)N[C@@H](C)C(=O)N[C@@H](CC(C)C)[C@@H](O)CC(=O)O)C(C)C)C(C)C [pepstatin] (Isovaleryl-VV[Sta]A[Sta]-OH),inhibition of proteolytic activity of anti-Factor VIII IgG,pepstatin 10 μM,did not result in inhibition of proteolytic activity
aprotinin,inhibition of proteolytic activity of anti-Factor VIII IgG,aprotinin 0.15 μM,did not result in inhibition of proteolytic activity
vWF: purified von Willebrand Factor,partial inhibition of hydrolysis of Factor VIII by anti-Factor VIII IgG,30 μg/ml of vWF versus 300 ng/ml of Factor VIII,36.9%
